According to patent publication US11192890B2, “FGFR kinase inhibitors and pharmaceutical uses” (AUCKLAND UNISERVICES LIMITED, priority 2017, dated 2021):
Like-named read-outs stand apart in the source and are kept apart here.

Tests used:
SUM52 cells = test: Oxic and anoxic anti-proliferative activity of the prodrugs; details: for Hypoxic Cytotoxicity Ratio (HCR), SUM52: ratio of oxic and anoxic IC50
FGFR2 = biological target: T1, FGFR2 (Homo sapiens, UniProt P21802); test: Isolated enzyme FRET-based Z-Lyte kinase inhibition assay; type: biochemical; details: means from 3 independent experiments; read-out: Isolate Enzyme Inhibition IC50, FGFR2
T1 construct: purchased Invitrogen
Description: (§1) FGFR1-4 and the Z-Lyte Kinase Assay Kit were purchased from Invitrogen. The concentration gradients from 5.1×10^−11 to 1.0×10^−6 mol/L were used for all the test compounds. The experiments were performed according to the instructions of the manufacturer.
(§2) FGFR1-4 isolated enzyme activity was determined using the FRET-based Z-Lyte kinase inhibition assay. The data are the means from 3 independent experiments.

FGFR1 = biological target: T2, FGFR1 (Homo sapiens, UniProt P11362); test: as above; type: biochemical; details: means from 3 independent experiments; read-out: Isolate Enzyme Inhibition IC50, FGFR1
T2 construct: purchased Invitrogen
Description: as §1, §2

FGFR3 = biological target: T3, FGFR3 (Homo sapiens, UniProt P22607); test: as above; type: biochemical; details: means from 3 independent experiments; read-out: Isolate Enzyme Inhibition IC50, FGFR3
T3 construct: purchased Invitrogen
Description: as §1, §2

[1] = system: FGFR3 in SW780 cells (phospho-ERK1/2); test: Drug washout Western blot assay, SW780 cells; type: cell-based; details: SW780; 30 min exposure, 100 nM, with and without washout
[2] = system: FGFR1 in H520 cells (phospho-ERK1/2); test: Drug washout Western blot assay, H520 cells; type: cell-based; details: H520; 30 min exposure, 100 nM, with and without washout
[3] = read-out: Cellular Anti-proliferative IC50, SUM52, Anoxic, 4 hours of anoxia, remainder of assay oxic
[4] = read-out: Cellular Anti-proliferative IC50, SUM52, Oxic, oxic conditions

T1 sequence (P21802 22-821): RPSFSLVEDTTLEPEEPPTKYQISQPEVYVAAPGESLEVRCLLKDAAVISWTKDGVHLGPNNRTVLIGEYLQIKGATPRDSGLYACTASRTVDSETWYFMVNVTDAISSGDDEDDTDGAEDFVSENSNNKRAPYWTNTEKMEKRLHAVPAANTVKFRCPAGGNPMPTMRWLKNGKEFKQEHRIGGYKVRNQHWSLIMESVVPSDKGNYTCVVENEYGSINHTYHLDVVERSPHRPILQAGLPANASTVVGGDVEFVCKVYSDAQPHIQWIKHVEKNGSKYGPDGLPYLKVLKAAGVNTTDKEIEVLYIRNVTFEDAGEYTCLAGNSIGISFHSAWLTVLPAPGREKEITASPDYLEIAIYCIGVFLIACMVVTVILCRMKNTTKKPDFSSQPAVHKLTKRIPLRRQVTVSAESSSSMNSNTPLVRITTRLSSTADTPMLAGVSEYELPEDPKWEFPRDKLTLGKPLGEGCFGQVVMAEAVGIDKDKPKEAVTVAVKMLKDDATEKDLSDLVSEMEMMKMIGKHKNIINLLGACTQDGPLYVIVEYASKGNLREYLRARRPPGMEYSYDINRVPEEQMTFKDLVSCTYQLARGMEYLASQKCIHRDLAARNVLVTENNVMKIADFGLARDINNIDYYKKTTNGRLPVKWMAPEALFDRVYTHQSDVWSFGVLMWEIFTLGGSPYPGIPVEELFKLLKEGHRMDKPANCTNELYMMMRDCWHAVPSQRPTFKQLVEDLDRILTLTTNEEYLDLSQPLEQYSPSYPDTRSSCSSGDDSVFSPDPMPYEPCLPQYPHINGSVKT
T3 sequence (P22607 23-806): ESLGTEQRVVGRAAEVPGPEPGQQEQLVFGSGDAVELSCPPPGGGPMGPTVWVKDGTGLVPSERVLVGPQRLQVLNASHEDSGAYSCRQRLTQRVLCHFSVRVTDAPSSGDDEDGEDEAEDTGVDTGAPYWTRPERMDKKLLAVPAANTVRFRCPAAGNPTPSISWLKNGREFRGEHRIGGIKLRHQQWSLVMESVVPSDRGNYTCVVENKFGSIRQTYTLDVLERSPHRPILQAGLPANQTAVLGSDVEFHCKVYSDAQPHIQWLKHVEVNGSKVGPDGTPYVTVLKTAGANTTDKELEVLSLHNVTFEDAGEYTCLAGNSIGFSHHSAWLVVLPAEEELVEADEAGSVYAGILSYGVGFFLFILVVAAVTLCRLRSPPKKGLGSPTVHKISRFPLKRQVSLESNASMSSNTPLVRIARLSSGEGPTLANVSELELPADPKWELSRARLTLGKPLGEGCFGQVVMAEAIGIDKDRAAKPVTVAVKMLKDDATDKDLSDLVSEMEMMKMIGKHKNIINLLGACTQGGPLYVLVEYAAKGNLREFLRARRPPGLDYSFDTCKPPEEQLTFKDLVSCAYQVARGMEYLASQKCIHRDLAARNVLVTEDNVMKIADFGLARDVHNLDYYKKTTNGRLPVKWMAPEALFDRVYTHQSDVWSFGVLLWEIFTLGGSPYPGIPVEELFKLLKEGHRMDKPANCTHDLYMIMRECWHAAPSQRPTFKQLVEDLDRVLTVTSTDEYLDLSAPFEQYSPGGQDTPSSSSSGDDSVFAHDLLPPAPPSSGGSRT
T2 sequence (P11362 22-822): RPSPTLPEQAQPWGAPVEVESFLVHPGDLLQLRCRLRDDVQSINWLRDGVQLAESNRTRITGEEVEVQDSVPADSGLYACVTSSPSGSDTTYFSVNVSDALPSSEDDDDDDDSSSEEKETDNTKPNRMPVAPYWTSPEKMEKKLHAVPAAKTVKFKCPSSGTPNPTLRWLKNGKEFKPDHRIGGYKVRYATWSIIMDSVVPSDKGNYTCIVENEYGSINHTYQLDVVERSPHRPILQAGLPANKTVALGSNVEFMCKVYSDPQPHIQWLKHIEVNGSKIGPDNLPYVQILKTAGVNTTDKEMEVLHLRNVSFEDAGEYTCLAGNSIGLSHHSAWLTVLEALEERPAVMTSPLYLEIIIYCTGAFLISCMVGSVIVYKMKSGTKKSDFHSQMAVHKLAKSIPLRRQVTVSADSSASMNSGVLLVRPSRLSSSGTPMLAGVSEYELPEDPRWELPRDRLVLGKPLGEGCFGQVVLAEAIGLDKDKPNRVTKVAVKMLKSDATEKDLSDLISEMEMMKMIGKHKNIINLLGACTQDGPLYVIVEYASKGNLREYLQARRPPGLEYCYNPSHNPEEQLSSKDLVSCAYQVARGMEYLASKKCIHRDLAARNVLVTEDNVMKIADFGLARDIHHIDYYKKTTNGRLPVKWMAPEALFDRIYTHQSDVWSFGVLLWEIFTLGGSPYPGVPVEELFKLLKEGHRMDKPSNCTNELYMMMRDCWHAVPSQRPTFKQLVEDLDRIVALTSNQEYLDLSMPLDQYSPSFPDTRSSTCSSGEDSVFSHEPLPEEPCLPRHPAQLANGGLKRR

Row | SMILES | melting point [°C] | IC50 (FGFR2) [nM] | IC50 (FGFR1) [nM] | IC50 (FGFR3) [nM] | other results
1 | COc1cc(OC)c(Br)c(-c2cc3cnc(NC(C)C)cc3n(C3CCN(C(=O)/C=C/CN(C)C)CC3)c2=O)c1Br [Compound 155, (E)-3-(2,6-dibromo-3,5-dimethoxyphenyl)-1-(1-(4-(dimethylamino)but-2-enoyl)piperidin-4-yl)-7-(isopropylamino)-1,6-naphthyridin-2(1H)-one] | 251 to 254 |  |  |  | 
2 | COc1cc(OC)c(Cl)c(N2Cc3cnc(Nc4ccc(N5CCOCC5)cc4)nc3N(C3CCN(C(=O)/C=C/C[N+](C)(C)Cc4c([N+](=O)[O-])ncn4C)CC3)C2=O)c1.[Br-] [Compound 219, (E)-4-(4-(3-(2-chloro-3,5-dimethoxyphenyl)-7-((4-morpholinophenyl)amino)-2-oxo-3,4-dihydropyrimido[4,5-d]pyrimidin-1(2H)-yl)piperidin-1-yl)-N,N-dimethyl-N-((1-methyl-4-nitro-1H-imidazol-5-yl)methyl)-4-oxobut-2-en-1-aminium bromide] | 241 to 244 |  |  |  | Hypoxic Cytotoxicity Ratio (HCR), SUM52 (SUM52 cells): 22; IC50 (SUM52 cells; [3]): 2 nM; IC50 (SUM52 cells; [4]): 52 nM
3 | COc1cc(OC)c(Cl)c(-c2cc3cnc(NCC4CCOCC4)nc3n(C3CCN(C(=O)/C=C/CN(C)C)CC3)c2=O)c1Cl [Compound 137, (E)-6-(2,6-dichloro-3,5-dimethoxyphenyl)-8-(1-(4-(dimethylamino)but-2-enoyl)piperidin-4-yl)-2-(((tetrahydro-2H-pyran-4-l)methyl)amino)pyrido[2,3-d]pyrimidin-7(8H)-one] |  | 1.8 | 0.7 | 6.2 | reversible or irreversible inhibition of FGFR3 in cells [1]: potent reversible inhibitors
4 | COc1cc(OC)c(Cl)c(N2Cc3cnc(Nc4cccnc4)nc3N(C3CCN(C(=O)/C=C/CN(C)C)CC3)C2=O)c1Cl [Compound 158, (E)-3-(2,6-dichloro-3,5-dimethoxyphenyl)-1-(1-(4-(dimethylamino)but-2-enoyl)piperidin-4-yl)-7-(pyridin-3-ylamino)-3,4-dihydropyrimido[4,5-d]pyrimidin-2(1H)-one] | 207 to 209 |  |  |  | 
5 | COc1cc(OC)c(Cl)c(N2Cc3cnc(Nc4ccccc4)nc3N(C3CCN(C(=O)/C=C/C[N+](C)(C)Cc4c([N+](=O)[O-])ncn4C)CC3)C2=O)c1.[Br-] [Compound 217, (E)-4-(4-(3-(2-chloro-3,5-dimethoxyphenyl)-2-oxo-7-(phenylamino)-3,4-dihydropyrimido[4,5-d]pyrimidin-1(2H)-yl)piperidin-1-yl)-N,N-dimethyl-N-((1-methyl-4-nitro-1H-imidazol-5-yl)methyl)-4-oxobut-2-en-1-aminium bromide] | 181 to 184 |  |  |  | Hypoxic Cytotoxicity Ratio (HCR), SUM52 (SUM52 cells): 7; IC50 (SUM52 cells; [3]): 4 nM; IC50 (SUM52 cells; [4]): 24 nM
6 | COc1cc(OC)c(Br)c(-c2cc3cnc(NC(C)C)nc3n(C3CCN(C(=O)/C=C/CN(C)C)CC3)c2=O)c1Br [Compound 153, (E)-6-(2,6-dibromo-3,5-dimethoxyphenyl)-8-(1-(4-(dimethylamino)but-2-enoyl)piperidin-4-yl)-2-(isopropylamino)pyrido[2,3-d]pyrimidin-7(8H)-one] |  | 1 | 0.8 | 7.6 | reversible or irreversible inhibition of FGFR1 in cells [2]: potent irreversible inhibitors
7 | COc1cc(OC)c(Cl)c(N2Cc3cnc(Nc4ccncc4)nc3N(C3CCN(C(=O)/C=C/CN(C)C)CC3)C2=O)c1Cl [Compound 159, (E)-3-(2,6-dichloro-3,5-dimethoxyphenyl)-1-(1-(4-(dimethylamino)but-2-enoyl)piperidin-4-yl)-7-(pyridin-4-ylamino)-3,4-dihydropyrimido[4,5-d]pyrimidin-2(1H)-one] | > 300 |  |  |  | 
8 | COc1cc(OC)c(Cl)c(N2Cc3cnc(Nc4ccc(N5CCOCC5)cc4)nc3N(C3CCN(C(=O)/C=C/C[N+](C)(C)Cc4c([N+](=O)[O-])ncn4C)CC3)C2=O)c1Cl.[Br-] [Compound 218, (E)-4-(4-(3-(2,6-dichloro-3,5-dimethoxyphenyl)-7-((4-morpholinophenyl)amino)-2-oxo-3,4-dihydropyrimido[4,5-d]pyrimidin-1(2H)-yl)piperidin-1-yl)-N,N-dimethyl-N-((1-methyl-4-nitro-1H-imidazol-5-yl)methyl)-4-oxobut-2-en-1-aminium bromide] | > 295 |  |  |  | Hypoxic Cytotoxicity Ratio (HCR), SUM52 (SUM52 cells): 4; IC50 (SUM52 cells; [3]): 3 nM; IC50 (SUM52 cells; [4]): 14 nM
9 | COc1cc(OC)c(Br)c(-c2cc3cnc(Nc4ccccc4)nc3n(C3CCN(C(=O)/C=C/CN(C)C)CC3)c2=O)c1Br [Compound 152, (E)-6-(2,6-dibromo-3,5-dimethoxyphenyl)-8-(1-(4-(dimethylamino)but-2-enoyl)piperidin-4-yl)-2-(phenylamino)pyrido[2,3-d]pyrimidin-7(8H)-one] |  | 1.1 | 0.7 | 2 | reversible or irreversible inhibition of FGFR1 in cells [2]: potent irreversible inhibitors
10 | COc1cc(OC)c(Cl)c(N2Cc3cnc(Nc4ccn(C)n4)nc3N(C3CCN(C(=O)/C=C/CN(C)C)CC3)C2=O)c1Cl [Compound 160, (E)-3-(2,6-dichloro-3,5-dimethoxyphenyl)-1-(1-(4-(dimethylamino)but-2-enoyl)piperidin-4-yl)-7-((1-methyl-1H-pyrazol-3-yl)amino)-3,4-dihydropyrimido[4,5-d]pyrimidin-2(1H)-one] | 203 |  |  |  | 
11 | CNc1ncc2c(n1)N(C1CCC(NC(=O)/C=C/CN(C)C)CC1)C(=O)N(c1c(Cl)c(OC)cc(OC)c1Cl)C2 (stereo not shown) [Compound 126, (E)-N-(4-(3-(2,6-dichloro-3,5-dimethoxyphenyl)-7-(methylamino)-2-oxo-3,4-dihydropyrimido[4,5-d]pyrimidin-1(2H)-yl)cyclohexyl)-4-(dimethylamino)but-2-enamide] |  | 1.5 | 0.5 | 6.8 | reversible or irreversible inhibition of FGFR3 in cells [1]: potent reversible inhibitors
12 | COc1cc(OC)c(Br)c(N2Cc3cnc(NC(C)C)nc3N(C3CCN(C(=O)/C=C/CN(C)C)CC3)C2=O)c1Br [Compound 151, (E)-3-(2,6-dibromo-3,5-dimethoxyphenyl)-1-(1-(4-(dimethylamino)but-2-enoyl)piperidin-4-yl)-7-(isopropylamino)-3,4-dihydropyrimido[4,5-d]pyrimidin-2(1H)-one] |  | 3.5 | 4.2 | 35 | reversible or irreversible inhibition of FGFR1 in cells [2]: reversible binding characteristics
13 | CNc1cc2c(cn1)cc(-c1c(Cl)c(OC)cc(OC)c1Cl)c(=O)n2C1CCN(C(=O)/C=C/CN(C)C)CC1 [Compound 148, (E)-3-(2,6-dichloro-3,5-dimethoxyphenyl)-1-(1-(4-(dimethylamino)but-2-enoyl)piperidin-4-yl)-7-(methylamino)-1,6-naphthyridin-2(1H)-one] | 209 to 212 |  |  |  | 
14 | CNc1ncc2c(n1)N(C1CCN(C(=O)/C=C/CN3CCOCC3)CC1)C(=O)N(c1c(Cl)c(OC)cc(OC)c1Cl)C2 [Compound 123, (E)-3-(2,6-dichloro-3,5-dimethoxyphenyl)-7-(methylamino)-1-(1-(4-morpholinobut-2-enoyl)piperidin-4-yl)-3,4-dihydropyrimido[4,5-d]pyrimidin-2(1H)-one] |  | 2.7 | 0.7 | 8.3 | reversible or irreversible inhibition of FGFR3 in cells [1]: potent reversible inhibitors
15 | COc1cc(OC)c(Cl)c(-c2cc3cnc(NC(C)C)nc3n(C3CCN(C(=O)/C=C/CN(C)C)CC3)c2=O)c1Cl [Compound 133, (E)-6-(2,6-dichloro-3,5-dimethoxyphenyl)-8-(1-(4-(dimethylamino)but-2-enoyl)piperidin-4-yl)-2-(isopropylamino)pyrido[2,3-d]pyrimidin-7(8H)-one] |  | 1.5 | 1 | 11 | reversible or irreversible inhibition of FGFR1 in cells [2]: potent irreversible inhibitors; reversible or irreversible inhibition of FGFR3 in cells [1]: potent irreversible inhibitors
16 | COc1cc(OC)c(Cl)c(-c2cc3cnc(NC(C)C)cc3n(C3CCN(C(=O)/C=C/CN(C)C)CC3)c2=O)c1Cl [Compound 149, (E)-3-(2,6-dichloro-3,5-dimethoxyphenyl)-1-(1-(4-(dimethylamino)but-2-enoyl)piperidin-4-yl)-7-(isopropylamino)-1,6-naphthyridin-2(1H)-one] | 243 to 246 |  |  |  | 
17 | COc1cc(OC)c(Cl)c(-c2cc3cnc(Nc4ccccc4)cc3n(C3CCN(C(=O)/C=C/CN(C)C)CC3)c2=O)c1Cl [Compound 232, (E)-3-(2,6-dichloro-3,5-dimethoxyphenyl)-1-(1-(4-(dimethylamino)but-2-enoyl)piperidin-4-yl)-7-(phenylamino)-1,6-naphthyridin-2(1H)-one] | 230 to 233 |  |  |  | 
18 | COc1cc(OC)c(Cl)c(N2Cc3cnc(Nc4ccccn4)nc3N(C3CCN(C(=O)/C=C/CN(C)C)CC3)C2=O)c1Cl [Compound 157, (E)-3-(2,6-dichloro-3,5-dimethoxyphenyl)-1-(1-(4-(dimethylamino)but-2-enoyl)piperidin-4-yl)-7-(pyridin-2-ylamino)-3,4-dihydropyrimido[4,5-d]pyrimidin-2(1H)-one] | 224 to 227 |  |  |  | 
